Patent publication EP3046573B1, “AMYLIN ANALOGUES” (Zealand Pharma A/S, priority 2013, dated 2015)
Numbered stars: 1 amine (or outer) side, 2 acyl side, 3 side chain; on linkers, the order of the positions; unused ones are H or OH. Bridge positions count the residues as written; N and C are the ends. Square brackets hold non-standard residues; d marks the D form. Peptide text beside a SMILES is read from it. * marks the point of attachment. C20 diacid = O=C(O)CCCCCCCCCCCCCCCCCCC(=O)*; γGlu = O=C(O)[C@H](CCC(=O)[*:2])N[*:1]; NMeI = CC[C@H](C)[C@H](NC)C(=O)O; Sar = CNCC(=O)O

What was measured:
[1] = molecular target: T1, human calcitonin receptor (hCTR2) (Homo sapiens, UniProt P30988); assay: hCTR2 assay: induction of cAMP (AlphaScreen cAMP Assay kit) in COS7 cells expressing hCTR2; type: cell-based; settings: cAMP induction in COS7 cells expressing hCTR2; average of a minimum of 3 determinations; read-out: hCTR2 EC50
T1 construct: expressed in transfected cells
T1 sequence (P30988 25-474): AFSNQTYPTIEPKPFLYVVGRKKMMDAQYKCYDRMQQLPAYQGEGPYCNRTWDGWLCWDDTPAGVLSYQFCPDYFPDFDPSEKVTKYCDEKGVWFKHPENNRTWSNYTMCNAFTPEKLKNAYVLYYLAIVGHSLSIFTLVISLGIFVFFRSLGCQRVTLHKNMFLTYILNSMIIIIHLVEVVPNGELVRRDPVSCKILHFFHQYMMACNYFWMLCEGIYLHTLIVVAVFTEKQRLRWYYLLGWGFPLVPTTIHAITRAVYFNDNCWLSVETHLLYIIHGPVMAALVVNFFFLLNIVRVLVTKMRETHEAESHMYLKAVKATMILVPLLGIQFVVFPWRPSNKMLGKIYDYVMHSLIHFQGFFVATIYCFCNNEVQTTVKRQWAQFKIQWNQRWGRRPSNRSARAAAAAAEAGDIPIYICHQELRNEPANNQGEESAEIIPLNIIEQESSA
Method in brief: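 COS7 stable hCTR2 clone (RAMP-free); peptide dose-response 15 min 37° C in Tyrode pH 7.4 + 100 µM IBMX + 0.1% casein; lysis 10 min RT; AlphaScreen cAMP; 4PL fit.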

[2] = Solubility assessment (turbidity absorbance at 325 nm); type: physicochemical; settings: stock 2 mg/ml diluted 1:1, ambient temperature (typically 25°C), n=1; for Solubility, Acetate buffer pH 4: 100 mM acetate buffer pH 4.0; for Solubility, Acetate buffer pH 5: 100 mM acetate buffer pH 5.0; for Solubility, Histidine buffer pH 6: 100 mM histidine buffer pH 6.0; for Solubility, Histidine buffer pH 7: 100 mM histidine buffer pH 7.0; for Solubility, Phosphate buffer pH 6: 100 mM phosphate buffer pH 6.0; for Solubility, Phosphate buffer pH 7: 100 mM phosphate buffer pH 7.0; for Solubility, Phosphate buffer pH 7.5: 100 mM phosphate buffer pH7.5
Method in brief: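 Peptide stock (2 mg/ml, water pH 2.5) diluted 1:1 into 100 mM acetate (pH 4.0, 5.0), histidine (pH 6.0, 7.0) or phosphate (pH 6.0–7.5) buffer; absorbance at 325 nm read at about 25°C, n=1. A325 ≤ 0.02 taken as solubility ≥ 1 mg/ml.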

| EC50 [1] [pM] | Solubility, Acetate buffer pH 4 [2] | Solubility, Acetate buffer pH 5 [2] | Solubility, Histidine buffer pH 6 [2] | Solubility, Histidine buffer pH 7 [2] | Solubility, Phosphate buffer pH 6 [2] | Solubility, Phosphate buffer pH 7 [2] | Solubility, Phosphate buffer pH 7.5 [2] | SMILES |
| --- | --- | --- | --- | --- | --- | --- | --- | --- |
| 120 | SS (SS indicates solubility ≥ 1mg/ml) | SS (SS indicates solubility ≥ 1mg/ml) | SS (SS indicates solubility ≥ 1mg/ml) | SS (SS indicates solubility ≥ 1mg/ml) | SS (SS indicates solubility ≥ 1mg/ml) | SS (SS indicates solubility ≥ 1mg/ml) | SS (SS indicates solubility ≥ 1mg/ml) | CC[C@H](C)[C@@H](C(=O)N[C@@H](CC(C)C)C(=O)N[C@@H](CO)C(=O)N[C@@H](CO)C(=O)N[C@H](C(=O)N[C@@H](CC(N)=O)C(=O)N[C@H](C(=O)NCC(=O)N[C@@H](CO)C(=O)N[C@@H](CC(N)=O)C(=O)N[C@H](C(=O)N1CCC[C@H]1C(N)=O)[C@@H](C)O)C(C)C)[C@@H](C)O)N(C)C(=O)CN(C)C(=O)[C@H](Cc1ccccc1)NC(=O)[C@H](CC(N)=O)NC(=O)[C@H](CC(N)=O)NC(=O)[C@H](Cc1c[nH]cn1)NC(=O)[C@H](Cc1c[nH]cn1)NC(=O)[C@H](CC(C)C)NC(=O)[C@H](Cc1ccccc1)NC(=O)[C@H](CCC(=O)O)NC(=O)[C@H](C)NC(=O)[C@H](CC(C)C)NC(=O)[C@H](CCCNC(=N)N)NC(=O)[C@H](CCC(N)=O)NC(=O)[C@@H](NC(=O)[C@H](C)NC(=O)[C@@H]1CSSC[C@H](NC(=O)[C@H](CCCNC(=N)N)NC(=O)CC[C@H](NC(=O)CCCCCCCCCCCCCCCCCCC(=O)O)C(=O)O)C(=O)N[C@@H](CC(N)=O)C(=O)N[C@@H]([C@@H](C)O)C(=O)N[C@@H](C)C(=O)N[C@@H]([C@@H](C)O)C(=O)N1)[C@@H](C)O [Compound 48, [19CD]-isoGlu-RC()NTATC()ATQRLAEFLHHNNF-Gly(Me)-Ile(Me)-LSSTNVGSNTP-NH2] ({C20 diacid-γGlu}-RCNTATCATQRLAEFLHHNNF[Sar][NMeI]LSSTNVGSNTP-NH2; disulfide 2-7) |
| 140 | II (II indicates solubility ≤ 1 mg/ml) | II (II indicates solubility ≤ 1 mg/ml) | II (II indicates solubility ≤ 1 mg/ml) | II (II indicates solubility ≤ 1 mg/ml) | II (II indicates solubility ≤ 1 mg/ml) | II (II indicates solubility ≤ 1 mg/ml) | II (II indicates solubility ≤ 1 mg/ml) | CC[C@H](C)[C@@H](C(=O)N[C@@H](CC(C)C)C(=O)N[C@@H](CO)C(=O)N[C@@H](CO)C(=O)N[C@H](C(=O)N[C@@H](CC(N)=O)C(=O)N[C@H](C(=O)NCC(=O)N[C@@H](CO)C(=O)N[C@@H](CC(N)=O)C(=O)N[C@H](C(=O)N1CCC[C@H]1C(N)=O)[C@@H](C)O)C(C)C)[C@@H](C)O)N(C)C(=O)[C@H](C)NC(=O)[C@H](Cc1ccccc1)NC(=O)[C@H](CC(N)=O)NC(=O)[C@H](CC(N)=O)NC(=O)[C@H](CO)NC(=O)[C@H](CO)NC(=O)[C@H](Cc1c[nH]cn1)NC(=O)[C@H](Cc1c[nH]cn1)NC(=O)[C@H](CC(C)C)NC(=O)[C@H](Cc1ccccc1)NC(=O)[C@H](CCC(=O)O)NC(=O)[C@H](C)NC(=O)[C@H](CC(C)C)NC(=O)[C@H](CCCNC(=N)N)NC(=O)[C@H](CCC(N)=O)NC(=O)[C@@H](NC(=O)[C@H](C)NC(=O)[C@@H]1CSSC[C@H](NC(=O)[C@H](CCCNC(=N)N)NC(=O)CC[C@H](NC(=O)CCCCCCCCCCCCCCCCCCC(=O)O)C(=O)O)C(=O)N[C@@H](CC(N)=O)C(=O)N[C@@H]([C@@H](C)O)C(=O)N[C@@H](C)C(=O)N[C@@H]([C@@H](C)O)C(=O)N1)[C@@H](C)O [Compound 49, [19CD]-isoGlu-RC()NTATC()ATQRLAEFLHHSSNNFA-Ile(Me)-LSSTNVGSNTP-NH2] ({C20 diacid-γGlu}-RCNTATCATQRLAEFLHHSSNNFA[NMeI]LSSTNVGSNTP-NH2; disulfide 2-7) |
| 140 | SS (SS indicates solubility ≥ 1mg/ml) | SS (SS indicates solubility ≥ 1mg/ml) | SS (SS indicates solubility ≥ 1mg/ml) | SS (SS indicates solubility ≥ 1mg/ml) | SS (SS indicates solubility ≥ 1mg/ml) | SS (SS indicates solubility ≥ 1mg/ml) | SS (SS indicates solubility ≥ 1mg/ml) | CC[C@H](C)[C@@H](C(=O)N[C@@H](CC(C)C)C(=O)N[C@@H](CO)C(=O)N[C@@H](CO)C(=O)N[C@H](C(=O)N[C@@H](CC(N)=O)C(=O)N[C@H](C(=O)NCC(=O)N[C@@H](CO)C(=O)N[C@@H](CC(N)=O)C(=O)N[C@H](C(=O)N1CCC[C@H]1C(N)=O)[C@@H](C)O)C(C)C)[C@@H](C)O)N(C)C(=O)[C@H](C)NC(=O)CN(C)C(=O)[C@H](CC(N)=O)NC(=O)[C@H](CC(N)=O)NC(=O)[C@H](CO)NC(=O)[C@H](CO)NC(=O)[C@H](Cc1c[nH]cn1)NC(=O)[C@H](Cc1c[nH]cn1)NC(=O)[C@H](CC(C)C)NC(=O)[C@H](Cc1ccccc1)NC(=O)[C@H](CCC(=O)O)NC(=O)[C@H](C)NC(=O)[C@H](CC(C)C)NC(=O)[C@H](CCCNC(=N)N)NC(=O)[C@H](CCC(N)=O)NC(=O)[C@@H](NC(=O)[C@H](C)NC(=O)[C@@H]1CSSC[C@H](NC(=O)[C@H](CCCNC(=N)N)NC(=O)CC[C@H](NC(=O)CCCCCCCCCCCCCCCCCCC(=O)O)C(=O)O)C(=O)N[C@@H](CC(N)=O)C(=O)N[C@@H]([C@@H](C)O)C(=O)N[C@@H](C)C(=O)N[C@@H]([C@@H](C)O)C(=O)N1)[C@@H](C)O [Compound 50, [19CD]-isoGlu-RC()NTATC()ATQRLAEFLHHSSNN-Gly(Me)-A-Ile(Me)-LSSTNVGSNTP-NH2] ({C20 diacid-γGlu}-RCNTATCATQRLAEFLHHSSNN[Sar]A[NMeI]LSSTNVGSNTP-NH2; disulfide 2-7) |
| 93 | II (II indicates solubility ≤ 1 mg/ml) | II (II indicates solubility ≤ 1 mg/ml) | II (II indicates solubility ≤ 1 mg/ml) | II (II indicates solubility ≤ 1 mg/ml) | II (II indicates solubility ≤ 1 mg/ml) | II (II indicates solubility ≤ 1 mg/ml) | II (II indicates solubility ≤ 1 mg/ml) | CC[C@H](C)[C@@H](C(=O)N[C@@H](CC(C)C)C(=O)N[C@@H](CO)C(=O)N[C@@H](CO)C(=O)N[C@H](C(=O)N[C@@H](CC(N)=O)C(=O)N[C@H](C(=O)NCC(=O)N[C@@H](CO)C(=O)N[C@@H](CC(N)=O)C(=O)N[C@H](C(=O)N1CCC[C@H]1C(N)=O)[C@@H](C)O)C(C)C)[C@@H](C)O)N(C)C(=O)CN(C)C(=O)[C@H](CC(N)=O)NC(=O)[C@H](CC(N)=O)NC(=O)[C@H](CO)NC(=O)[C@H](CO)NC(=O)[C@H](Cc1c[nH]cn1)NC(=O)[C@H](Cc1c[nH]cn1)NC(=O)[C@H](CC(C)C)NC(=O)[C@H](Cc1ccccc1)NC(=O)[C@H](CCC(=O)O)NC(=O)[C@H](C)NC(=O)[C@H](CC(C)C)NC(=O)[C@H](CCCNC(=N)N)NC(=O)[C@H](CCC(N)=O)NC(=O)[C@@H](NC(=O)[C@H](C)NC(=O)[C@@H]1CSSC[C@H](NC(=O)[C@H](CCCNC(=N)N)NC(=O)CC[C@H](NC(=O)CCCCCCCCCCCCCCCCCCC(=O)O)C(=O)O)C(=O)N[C@@H](CC(N)=O)C(=O)N[C@@H]([C@@H](C)O)C(=O)N[C@@H](C)C(=O)N[C@@H]([C@@H](C)O)C(=O)N1)[C@@H](C)O [Compound 51, [19CD]-isoGlu-RC()NTATC()ATQRLAEFLHHSSNN-Gly(Me)-Ile(Me)-LSSTNVGSNTP-NH2] ({C20 diacid-γGlu}-RCNTATCATQRLAEFLHHSSNN[Sar][NMeI]LSSTNVGSNTP-NH2; disulfide 2-7) |
